# According to patent US9932327B2, “Rohitukine analogs as cyclin-dependent kinase inhibitors and a process for the preparation thereof” (COUNCIL OF SCIENTIFIC AND INDUSTRIAL RESEARCH, priority 2013, dated 2018):
# Like-named read-outs stand apart in the source and are kept apart here.
# Columns and labels:
# [1] = system: Ehrlich solid tumor (EAC cells); assay: In vivo anticancer activity in Ehrlich solid tumor mice model; set-up: species or system Swiss mice; conditions: 22 mg/kg i/p day 1-9, positive control
# Procedure: Ehrlich ascites carcinoma (EAC) cells were collected from the peritoneal cavity of the swiss mice harbouring 8-10 days old ascitic tumor. 1×10^7 EAC cells were injected intramuscularly in right thigh of 31 Swiss male mice selected for the experiment on day 0. The next day, animals were randomized and divided into four groups. Three treatment groups contained 7 animals each and one control group contained 10 animals. Treatment was given as follows:
# Group I: Compound 33 (50 mg/kg i/p) from day 1-9.
# Group II: Compound 33 (70 mg/kg i/p) from day 1-9.
# The third treatment group was treated with 5-fluorouracil (22 mg/kg, i.p) from day 1-9 and it served as positive control. The control group was similarly administered normal saline (0.2 ml, i.p.) from day 1-9. On day 9 & 13, tumor bearing thigh of each animal was shaved and longest and shortest diameters of the tumor were measured with the help of vernier caliper. Tumor weight of each animal was calculated using the following formula.
# The percent tumor growth inhibition was calculated on day 13 by comparing the average values of treated groups with that of control group. Tumor growth in saline treated control animals was taken to be 100%.
# HL-60 (Leukemia) = assay: Cytotoxicity, MTT assay, HL-60; format: cell-based; conditions: Homo sapiens; for inhibition at 10 µM: read-out: Cell Growth Inhibition (%)
# Procedure: (§1) Compounds proposed in the present invention were evaluated for their cytotoxic effect against panel of six cancer cell line viz. HL-60 (Leukemia), PC-3 (Prostate), A-375 (Melanoma), MIAPaCa-2 (pancreatic), MCF-7 (Breast) and Caco-2 (Colon) using MTT assay. In each well of a 96-well plate, 3×10^3 cells were grown in 100 μL of medium. After 24 h, each test molecules were added to achieve a final concentration of 10 to 0.01 μmol/L, respectively. After 48 h of treatment, 20 μL of 2.5 mg/mL MTT (Organics Research, Inc.) solution in phosphate buffer saline was added to each well. After 48 h, supernatant was removed and formazan crystals were dissolved in 200 μL of DMSO. Absorbance was then measured at 570 nm using an absorbance plate reader (Bio-Rad Microplate Reader). Data are expressed as the percentage of viable cells in treated relative to non-treated conditions.
# PC-3 (Prostate) = assay: Cytotoxicity, MTT assay, PC-3; format: cell-based; conditions: for inhibition at 10 µM: read-out: Cell Growth Inhibition (%)
# Procedure: as §1
# A-375 (Melanoma) = assay: Cytotoxicity, MTT assay, A-375; format: cell-based; conditions: Homo sapiens; for inhibition at 10 µM: read-out: Cell Growth Inhibition (%)
# Procedure: as §1
# MIAPaCa-2 (pancreatic) = assay: Cytotoxicity, MTT assay, MIAPaCa-2; format: cell-based; conditions: Homo sapiens, MIA PaCa-2, read-out: Cell Growth Inhibition (%)
# Procedure: as §1
# MCF-7 (Breast) = assay: Cytotoxicity, MTT assay, MCF-7; format: cell-based; conditions: Homo sapiens; for inhibition at 10 µM: MCF7, 10 μM, read-out: Cell Growth Inhibition (%); for IC50: MCF7
# Procedure: as §1
# Caco-2 (Colon) = assay: Cytotoxicity, MTT assay, Caco-2; format: cell-based; conditions: Homo sapiens; for inhibition at 10 µM: read-out: Cell Growth Inhibition (%)
# Procedure: as §1
# CDK-2/cyclin A = CDK-2/cyclin A (Homo sapiens (Human), UniProt P24941); assay: Inhibition of CDK-2/cyclin A; format: biochemical
# CDK-9/Cyclin T1 = CDK-9/Cyclin T1 (Homo sapiens (Human), UniProt P50750); assay: Inhibition of CDK-9/cyclin T1; conditions: IC50 (nM) CDK-9/T1
# Procedure: (50-1000 cpm/pmole) and incubated for 30 mM at room temperature. Assays were stopped by addition of 5 μl of 0.5 M (3%) orthophosphoric acid and then harvested onto P81 Unifilter plates with a wash buffer of 50 mM orthophosphoric acid.
# [2] = Thermodynamic equilibrium solubility; format: physicochemical; conditions: 25 °C, thermodynamic from solid
# Procedure: The compounds were first dissolved in methanol to prepare stock solutions (100 and 1000 μg/mL). Different concentrations of stock solutions were pipetted into the 96-well plates and the solvent was evaporated to ensure that solid drug was present in the beginning of the experiment. […] The plates were kept overnight for equilibration of drug in medium. Later, the plates were centrifuged at 3000 rpm for 15 min (Jouan centrifuge BR4i). Supernatant (50 μl) was pipetted into UV 96-well plates (Corning® 96 Well Clear Flat Bottom UV-Transparent Microplate) for analyses with plate reader (SpectraMax Plus384) at λmax of 350 nm. The analyses were performed in triplicate for each compound. The solubility curve of concentration (μg/mL) vs absorbance was plotted to find out saturation point and the corresponding concentration was noted (Heikkilä, T. et al. Int. J. Pharm. 2011, 405, 132).
# [3] = water, 25±1° C., read-out: Solubility in μg/mL, Water
# [4] = phosphate buffer saline (PBS), aqueous buffer, read-out: Solubility in μg/mL, PBS
# [5] = simulated gastric fluid (SGF), simulated gastric fluid, read-out: Solubility in μg/mL, SGF
# [6] = simulated intestinal fluid (SIF), fassgf or other biorelevant, read-out: Solubility in μg/mL, SIF
# CDK-9/Cyclin T1, sequence (P50750 whole entry): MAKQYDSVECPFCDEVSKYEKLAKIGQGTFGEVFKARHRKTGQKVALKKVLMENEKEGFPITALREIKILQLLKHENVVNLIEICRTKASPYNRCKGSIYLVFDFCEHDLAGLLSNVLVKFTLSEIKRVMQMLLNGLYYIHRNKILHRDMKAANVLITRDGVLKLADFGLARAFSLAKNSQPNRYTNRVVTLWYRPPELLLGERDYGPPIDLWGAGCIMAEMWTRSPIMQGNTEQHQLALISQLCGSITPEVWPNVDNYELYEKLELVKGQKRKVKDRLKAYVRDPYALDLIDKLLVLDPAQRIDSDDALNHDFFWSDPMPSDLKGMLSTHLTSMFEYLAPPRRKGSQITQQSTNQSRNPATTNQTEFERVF
# CDK-9/Cyclin T1, sequence (O60563 whole entry partner): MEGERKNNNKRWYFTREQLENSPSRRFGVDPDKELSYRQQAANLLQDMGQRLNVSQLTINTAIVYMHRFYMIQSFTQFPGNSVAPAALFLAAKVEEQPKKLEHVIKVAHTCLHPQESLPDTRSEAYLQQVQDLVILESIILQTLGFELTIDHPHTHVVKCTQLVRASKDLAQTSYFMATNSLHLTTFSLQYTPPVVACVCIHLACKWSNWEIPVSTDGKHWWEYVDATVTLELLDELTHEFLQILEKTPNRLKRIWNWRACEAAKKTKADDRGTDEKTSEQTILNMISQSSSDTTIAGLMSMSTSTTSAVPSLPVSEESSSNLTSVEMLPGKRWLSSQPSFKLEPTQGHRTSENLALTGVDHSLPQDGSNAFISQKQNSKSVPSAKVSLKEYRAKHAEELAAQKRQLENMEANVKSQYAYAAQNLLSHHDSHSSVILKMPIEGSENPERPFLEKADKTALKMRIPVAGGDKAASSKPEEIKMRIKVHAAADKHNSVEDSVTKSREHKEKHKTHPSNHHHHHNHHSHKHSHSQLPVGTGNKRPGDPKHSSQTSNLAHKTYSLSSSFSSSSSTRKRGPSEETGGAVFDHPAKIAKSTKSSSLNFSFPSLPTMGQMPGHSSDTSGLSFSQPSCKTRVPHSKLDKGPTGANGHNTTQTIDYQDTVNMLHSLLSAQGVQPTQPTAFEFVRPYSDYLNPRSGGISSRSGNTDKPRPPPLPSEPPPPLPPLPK
compound,measurement,setting,value
"O=c1[nH]cc(F)c(=O)[nH]1 [Compound 5-FU, 5-fluorouracil, reference compound]",Day 13 % Tumor Growth Inhibition,[1],58.50%
same,Day 13 Av. Tumor weights,[1],613.71 mg
same,Mortality,[1],0/7
"Cc1cc(=O)c2c(O)cc(OCc3ccc([N+](=O)[O-])cc3)c(C3CCN(C)CC3O)c2o1 (stereo not drawn) [Compound 8, 7-(4-Nitrobenzyloxy)-5-hydroxy-8-(3-hydroxy-1-methylpiperidin-4-yl)-2-methyl-4H-chromen-4-one]",inhibition at 10 µM,HL-60 (Leukemia),14.4%
same,inhibition at 10 µM,PC-3 (Prostate),23%
same,inhibition at 10 µM,A-375 (Melanoma),37.5%
same,inhibition at 10 µM,MIAPaCa-2 (pancreatic),12.4%
same,inhibition at 10 µM,MCF-7 (Breast),39.3%
same,inhibition at 10 µM,Caco-2 (Colon),13.6%
"Cc1cc(=O)c2c(O)cc(OCc3ccccc3Br)c(C3CCN(C)CC3O)c2o1 (stereo not drawn) [Compound 9, 7-(2-Bromobenzyloxy)-5-hydroxy-8-(3-hydroxy-1-methylpipetidin-4-yl)-2-methyl-4H-chromen-4-one]",inhibition at 10 µM,HL-60 (Leukemia),3.05%
same,inhibition at 10 µM,PC-3 (Prostate),31.7%
same,IC50,A-375 (Melanoma),12 µM
same,inhibition at 10 µM,A-375 (Melanoma),58.6%
same,inhibition at 10 µM,MIAPaCa-2 (pancreatic),29.7%
same,inhibition at 10 µM,MCF-7 (Breast),45.4%
same,inhibition at 10 µM,Caco-2 (Colon),35.1%
"Cc1cc(=O)c2c(O)cc(OC(=O)c3ccco3)c(C3CCN(C)CC3O)c2o1 (stereo not drawn) [Compound 11, 5-Hydroxy-8-(3-hydroxy-1-methylpiperidin-4-yl)-2-methyl-4-oxo-4H-chromen-7-yl furan-2-carboxylate]",inhibition at 10 µM,HL-60 (Leukemia),80.2%
same,inhibition at 10 µM,PC-3 (Prostate),15.1%
same,inhibition at 10 µM,A-375 (Melanoma),11.2%
same,inhibition at 10 µM,MIAPaCa-2 (pancreatic),16.1%
same,inhibition at 10 µM,MCF-7 (Breast),2.86%
same,inhibition at 10 µM,Caco-2 (Colon),1.96%
"Cc1cc(=O)c2c(O)cc(OC(=O)c3ccccc3C)c(C3CCN(C)CC3O)c2o1 (stereo not drawn) [Compound 12, 5-Hydroxy-8-(3-hydroxy-1-methylpiperidin-4-yl)-2-methyl-4-oxo-4H-chromen-7-yl 2-methylbenzoate]",inhibition at 10 µM,HL-60 (Leukemia),12.8%
same,inhibition at 10 µM,PC-3 (Prostate),18.6%
same,inhibition at 10 µM,A-375 (Melanoma),42%
same,inhibition at 10 µM,MIAPaCa-2 (pancreatic),7.19%
same,inhibition at 10 µM,MCF-7 (Breast),13.4%
same,inhibition at 10 µM,Caco-2 (Colon),6.53%
"Cc1oc2c(C3CCN(C)CC3O)c(O)cc(O)c2c(=O)c1C(O)c1ccc([N+](=O)[O-])cc1 (stereo not drawn) [Compound 13, 5,7-Dihydroxy-3-(hydroxy(4-nitrophenyl)methyl)-8-(3-hydroxy-1-methylpiperidin-4-yl)-2-methyl-4H-chromen-4-one]",inhibition at 10 µM,HL-60 (Leukemia),0%
same,inhibition at 10 µM,PC-3 (Prostate),23.8%
same,inhibition at 10 µM,A-375 (Melanoma),35.9%
same,inhibition at 10 µM,MIAPaCa-2 (pancreatic),2.48%
same,inhibition at 10 µM,MCF-7 (Breast),4.03%
same,inhibition at 10 µM,Caco-2 (Colon),5.08%
"Cc1oc2c(C3CCN(C)CC3O)c(O)cc(O)c2c(=O)c1C(O)c1ccc(Cl)cc1 (stereo not drawn) [Compound 14, 3-((4-Chlorophenyl)(hydroxy)methyl)-5,7-dihydroxy-8-(3-hydroxy-1-methylpiperidin-4-yl)-2-methyl-4H-chromen-4-one]",IC50,HL-60 (Leukemia),11 µM
same,inhibition at 10 µM,HL-60 (Leukemia),1.93%
same,inhibition at 10 µM,PC-3 (Prostate),41%
same,inhibition at 10 µM,A-375 (Melanoma),34.2%
same,inhibition at 10 µM,MIAPaCa-2 (pancreatic),14.8%
same,inhibition at 10 µM,MCF-7 (Breast),5.91%
same,inhibition at 10 µM,Caco-2 (Colon),2.83%
"Cc1oc2c(C3CCN(C)CC3O)c(O)cc(O)c2c(=O)c1C(O)c1ccccc1Br (stereo not drawn) [Compound 15, 3-((2-Bromophenyl)(hydroxy)methyl)-5,7-dihydroxy-8-(3-hydroxy-1-methylpiperidin-4-yl)-2-methyl-4H-chromen-4-one]",inhibition at 10 µM,HL-60 (Leukemia),52%
same,inhibition at 10 µM,PC-3 (Prostate),44.5%
same,inhibition at 10 µM,A-375 (Melanoma),22.4%
same,inhibition at 10 µM,MIAPaCa-2 (pancreatic),10.1%
same,inhibition at 10 µM,MCF-7 (Breast),20.6%
same,inhibition at 10 µM,Caco-2 (Colon),6.62%
"Cc1oc2c(C3CCN(C)CC3O)c(O)cc(O)c2c(=O)c1C(O)c1cccc(Cl)c1 (stereo not drawn) [Compound 17, 3-((3-Chlorophenyl)(hydroxy)methyl)-5,7-dihydroxy-8-(3-hydroxy-1-methylpiperidin-4-yl)-2-methyl-4H-chromen-4-one]",inhibition at 10 µM,HL-60 (Leukemia),22.2%
same,inhibition at 10 µM,PC-3 (Prostate),31%
same,inhibition at 10 µM,A-375 (Melanoma),34.9%
same,inhibition at 10 µM,MIAPaCa-2 (pancreatic),1.52%
same,inhibition at 10 µM,MCF-7 (Breast),5.01%
same,inhibition at 10 µM,Caco-2 (Colon),4.42%
"Cc1oc2c(C3CCN(C)CC3O)c(O)cc(O)c2c(=O)c1C(O)c1c(F)cccc1Cl (stereo not drawn) [Compound 21, 3-((2-Chloro-6-fluorophenyl)(hydroxy)methyl)-5,7-dihydroxy-8-(3-hydroxy-1-methylpiperidin-4-yl)-2-methyl-4H-chromen-4-one]",inhibition at 10 µM,HL-60 (Leukemia),25.4%
same,inhibition at 10 µM,PC-3 (Prostate),72.5%
same,inhibition at 10 µM,A-375 (Melanoma),20.8%
same,inhibition at 10 µM,MIAPaCa-2 (pancreatic),8.58%
same,inhibition at 10 µM,MCF-7 (Breast),13.6%
same,inhibition at 10 µM,Caco-2 (Colon),5.94%
"CN1CCC(c2c(O)cc(O)c3c(=O)cc(/C=C/c4cccc(Cl)c4)oc23)C(O)C1 (stereo not drawn) [Compound 28, 2-(3-Chlorostyryl)-5,7-dihydroxy-8-(3-hydroxy-1-methylpiperidin-4-yl)-4H-chromen-4-one]",inhibition at 10 µM,HL-60 (Leukemia),24.3%
same,IC50,PC-3 (Prostate),10 µM
same,inhibition at 10 µM,PC-3 (Prostate),53.7%
same,IC50,A-375 (Melanoma),4 µM
same,inhibition at 10 µM,A-375 (Melanoma),65.9%
same,inhibition at 10 µM,MIAPaCa-2 (pancreatic),40.3%
same,IC50,MCF-7 (Breast),2 µM
same,inhibition at 10 µM,MCF-7 (Breast),80.4%
same,inhibition at 10 µM,Caco-2 (Colon),27.5%
"CN1CCC(c2c(O)cc(O)c3c(=O)cc(/C=C/c4c5ccccc5cc5ccccc45)oc23)C(O)C1 (stereo not drawn) [Compound 29, 2-((E)-2-(Anthracen-10-yl)vinyl)-5,7-dihydroxy-8-(3-hydroxy-1-methylpiperidin-4-yl)-4H-chromen-4-one]",inhibition at 10 µM,HL-60 (Leukemia),12.1%
same,IC50,PC-3 (Prostate),12 µM
same,inhibition at 10 µM,PC-3 (Prostate),50.5%
same,inhibition at 10 µM,A-375 (Melanoma),4.96%
same,inhibition at 10 µM,MIAPaCa-2 (pancreatic),17%
same,inhibition at 10 µM,MCF-7 (Breast),12.7%
same,inhibition at 10 µM,Caco-2 (Colon),0%
"CN1CCC(c2c(O)cc(O)c3c(=O)cc(/C=C/c4ccccc4F)oc23)C(O)C1 (stereo not drawn) [Compound 30, 2-(2-Fluorostyryl)-5,7-dihydroxy-8-(3-hydroxy-1-methylpiperidin-4-yl)-4H-chromen-4-one]",IC50,HL-60 (Leukemia),8 µM
same,inhibition at 10 µM,HL-60 (Leukemia),80.5%
same,IC50,PC-3 (Prostate),7 µM
same,inhibition at 10 µM,PC-3 (Prostate),72.2%
same,IC50,A-375 (Melanoma),7 µM
same,inhibition at 10 µM,A-375 (Melanoma),54.1%
same,inhibition at 10 µM,MIAPaCa-2 (pancreatic),21.3%
same,IC50,MCF-7 (Breast),3 µM
same,inhibition at 10 µM,MCF-7 (Breast),81.1%
same,IC50,Caco-2 (Colon),8 µM
same,inhibition at 10 µM,Caco-2 (Colon),51%
"CN1CCC(c2c(O)cc(O)c3c(=O)cc(/C=C/c4cccc(F)c4)oc23)C(O)C1 (stereo not drawn) [Compound 35, 2-(3-fluorostyryl)-5,7-dihydroxy-8-(3-hydroxy-1-methylpiperidin-4-yl)-4H-chromen-4-one]",IC50,CDK-2/cyclin A,466 nM
same,IC50,CDK-9/Cyclin T1,30 nM
"CN1CCC(c2c(O)cc(O)c3c(=O)cc(/C=C/c4c(Cl)cccc4Cl)oc23)C(O)C1.Cl (stereo not drawn) [Hydrochloride salt of 33, 2-(2,6-dichlorostyryl)-5,7-dihydroxy-8-(3-hydroxy-1-methylpiperidin-4-yl)-4H-chromen-4-one hydrochloride]",solubility,[2]; [3],> 1500 µg/mL
same,solubility,[2]; [4],40 µg/mL
same,solubility,[2]; [5],40 µg/mL
same,solubility,[2]; [6],10 µg/mL
"CN1CCC(c2c(O)cc(O)c3c(=O)cc(/C=C/c4c(F)c(F)c(F)c(F)c4F)oc23)C(O)C1.Cl (stereo not drawn) [Hydrochloride salt of 34, 2-(2,3,4,5,6-pentafluorostyryl)-5,7-dihydroxy-8-(3-hydroxy-1-methylpiperidin-4-yl)-4H-chromen-4-one hydrochloride]",solubility,[2]; [3],> 1500 µg/mL
same,solubility,[2]; [4],40 µg/mL
same,solubility,[2]; [5],80 µg/mL
same,solubility,[2]; [6],40 µg/mL
